Source: patent publication US20030215516A1, “Process for production of crystals of a medicinally effective ingredient, crystals obtained thereby and pharmaceutical preparations containing them” (priority 2002, published 2003)
Like-named read-outs stand apart in the source and are kept apart here. Marks after values point to notes of the source that are not given here.

Assays:
[1] = From the text: Content Determination according to USP/Ph. Eur. for individual capsules after elution through HPLC with external calibration
(§1) Column: LiChrosphere 5μ RP-18 encapped, 150×3 mm
(§2) Eluent: acetonitrile/water=45/55

[2] = Active ingredient release from 1 mg capsule / 1 mg tablet; type: physicochemical; details: 0.3% SDS in water
Method: The release values were compared in a test medium, which comprises 0.3% SDS in water, with paddle stirring, 100 rpm.
Active Ingredient Release:
Active ingredient release measured in 1000 mL water with 0.3% sodium dodecyl sulfate, 100 rpm
Content Determination by HPLC with external calibration
as §1, §2

[3] = Particle size distribution (Sympatec HELOS, dry dispersion); type: physicochemical
Text: Particle Size Distribution:
Sympatec HELOS (H0445), dry dispersion system (RODOS), pressure 2 bar

[4] = 1 mg capsule, microcrystals X50 3.4/X100 25 μm
[5] = 1 mg capsule, microcrystals X50 5.2/X100 30 μm
[6] = 1 mg capsule, microcrystals X50 6.6/X100 43 μm
[7] = 1 mg capsule, microcrystals X50 8.7/X100 43 μm
[8] = 1 mg capsule, microcrystals X50 14.1/X100 87 μm
[9] = 1 mg tablet, microcrystals X50 10.6/X100 73 μm
[10] = Example 1, spray-dried microcrystals
[11] = Example 2, primary particle size
[12] = Example 3, primary particle size
[13] = after drying on filter (from ethyl acetate suspension)
[14] = after spray-drying (from ethanol/water suspension)
[15] = suspension in ethanol/water (90/10) with 10% by weight microcrystalline J956, before drying
[16] = suspension in ethyl acetate with 14% by weight microcrystalline J956, before drying
[17] = Example 7, primary particle size
[18] = Example 6, primary particle size
[19] = Example 4, primary particle size

CCNC(=O)ON=Cc1ccc(C2CC3(C)C(CCC3(COC)OC)C3CCC4=CC(=O)CCC4=C23)cc1 (stereo not drawn) [Micronizate, 11β-{4-[(ethylaminocarbonyl)oximinomethyl]phenyl}-17β-methoxy-17α-methoxymethyl-estra-4,9-dien-3-one, reference compound]
CUT value spread: Confidence Interval % ([1]; 1 mg capsule, micronized J956): 1.72%
CUT value spread: RSD, % ([1]; 1 mg capsule, micronized J956): 2.56%
CUT value spread: Confidence Interval % ([1]; 1 mg tablet, micronized J956): 1.72%
CUT value spread: RSD, % ([1]; 1 mg tablet, micronized J956): 2.56%
RELEASE in % ([2]; 1 mg capsule, micronized J956, 0 min, paddle 100 rpm): 0%
RELEASE in % ([2]; 1 mg capsule, micronized J956, 10 min, paddle 100 rpm): 92.1%
RELEASE in % ([2]; 1 mg capsule, micronized J956, 20 min, paddle 100 rpm): 94.3%
RELEASE in % ([2]; 1 mg capsule, micronized J956, 30 min, paddle 100 rpm): 94.6%
RELEASE in % ([2]; 1 mg capsule, micronized J956, 45 min, paddle 100 rpm): 94.9%
RELEASE in % ([2]; 1 mg tablet, micronized J956, 0 min, paddle, 100 rpm): 0%
RELEASE in % ([2]; 1 mg tablet, micronized J956, 10 min, paddle, 100 rpm): 92.1%
RELEASE in % ([2]; 1 mg tablet, micronized J956, 20 min, paddle, 100 rpm): 94.3%
RELEASE in % ([2]; 1 mg tablet, micronized J956, 30 min, paddle, 100 rpm): 94.6%
RELEASE in % ([2]; 1 mg tablet, micronized J956, 45 min, paddle, 100 rpm): 94.9%

CCNC(=O)ON=Cc1ccc(C2CC3(C)C(CCC3(COC)OC)C3CCC4=CC(=O)CCC4=C23)cc1 (stereo not drawn) [J956, 11β-{4-[(ethylaminocarbonyl)oximinomethyl]phenyl}-17β-methoxy-17α-methoxymethyl-estra-4,9-dien-3-one]
CUT value spread: Confidence Interval % [1, 4]: 2.23%
CUT value spread: RSD, % [1, 4]: 3.56%
CUT value spread: Confidence Interval % [1, 5]: 1.20%
CUT value spread: RSD, % [1, 5]: 2.08%
CUT value spread: Confidence Interval % [1, 6]: 1.08%
CUT value spread: RSD, % [1, 6]: 1.57%
CUT value spread: Confidence Interval % [1, 7]: 0.93%
CUT value spread: RSD, % [1, 7]: 1.38%
CUT value spread: Confidence Interval % [1, 8]: 1.77%
CUT value spread: RSD, % [1, 8]: 2.50%
CUT value spread: Confidence Interval % [1, 9]: 1.16%
CUT value spread: RSD, % [1, 9]: 1.70%
Particle size X10 [3, 10]: 1.75 μm
Particle size X50 [3, 10]: 6.04 μm
Particle size X100 [3, 10]: 36 μm
Particle size X10 ([3]; Example 2, final): 4 μm
Particle size X50 ([3]; Example 2, final): 13 μm
Particle size X100 ([3]; Example 2, final): 73 μm
Particle size X10 [3, 11]: 3 μm
Particle size X50 [3, 11]: 9 μm
Particle size X100 [3, 11]: 61 μm
Particle size X10 ([3]; Example 3, final): 1.4 μm
Particle size X50 ([3]; Example 3, final): 5.4 μm
Particle size X100 ([3]; Example 3, final): 30 μm
Particle size X10 [3, 12]: 1.2 μm
Particle size X50 [3, 12]: 3.4 μm
Particle size X100 [3, 12]: 30 μm
average particle diameter (×50) ([3]; after dissolution and re-crystallization of 40 percent of the precipitate from 20 percent by weight ethyl acetate solution): 7.8 μm
Particle diameter X10 [3, 13]: 2.7 μm
Particle diameter X50 [3, 13]: 10.61 μm
Particle diameter X90 [3, 13]: 24 μm
Particle diameter X100 [3, 13]: 73 μm
Particle diameter X10 [3, 14]: 2.25 μm
Particle diameter X50 [3, 14]: 8.03 μm
Particle diameter X90 [3, 14]: 17 μm
Particle diameter X100 [3, 14]: 43 μm
increase of the maximum particle size (×100) ([3]; during dissolution and re-crystallization of 40 percent of the precipitate from 20 percent by weight ethyl acetate solution): scarcely measurable
average particle diameter (×50) ([3]; precipitated from a 20 percent by weight ethyl acetate solution, before dissolution and re-crystallization): 4.9 μm
Particle diameter X10 [3, 15]: 2.11 μm
Particle diameter X50 [3, 15]: 8.6 μm
Particle diameter X90 [3, 15]: 19 μm
Particle diameter X100 [3, 15]: 51 μm
Particle diameter X10 [3, 16]: 2.62*** μm
Particle diameter X50 [3, 16]: 10.4 μm
Particle diameter X90 [3, 16]: 24 μm
Particle diameter X100 [3, 16]: 73 μm
RELEASE in % ([2]; 1 mg capsule, microcrystals X50 3.4/X100 25 μm, 0 min, paddle 100 rpm): 0%
RELEASE in % ([2]; 1 mg capsule, microcrystals X50 3.4/X100 25 μm, 10 min, paddle 100 rpm): 90.7%
RELEASE in % ([2]; 1 mg capsule, microcrystals X50 3.4/X100 25 μm, 20 min, paddle 100 rpm): 97.3%
RELEASE in % ([2]; 1 mg capsule, microcrystals X50 3.4/X100 25 μm, 30 min, paddle 100 rpm): 98.1%
RELEASE in % ([2]; 1 mg capsule, microcrystals X50 3.4/X100 25 μm, 45 min, paddle 100 rpm): 99.9%
RELEASE in % ([2]; 1 mg capsule, microcrystals X50 5.2/X100 30 μm, 0 min, paddle 100 rpm): 0%
RELEASE in % ([2]; 1 mg capsule, microcrystals X50 5.2/X100 30 μm, 10 min, paddle 100 rpm): 89.8%
RELEASE in % ([2]; 1 mg capsule, microcrystals X50 5.2/X100 30 μm, 20 min, paddle 100 rpm): 93.5%
RELEASE in % ([2]; 1 mg capsule, microcrystals X50 5.2/X100 30 μm, 30 min, paddle 100 rpm): 93.4%
RELEASE in % ([2]; 1 mg capsule, microcrystals X50 5.2/X100 30 μm, 45 min, paddle 100 rpm): 95.6%
RELEASE in % ([2]; 1 mg capsule, microcrystals X50 6.6/X100 43 μm, 0 min, paddle 100 rpm): 0%
RELEASE in % ([2]; 1 mg capsule, microcrystals X50 6.6/X100 43 μm, 10 min, paddle 100 rpm): 93.2%
RELEASE in % ([2]; 1 mg capsule, microcrystals X50 6.6/X100 43 μm, 20 min, paddle 100 rpm): 95.9%
RELEASE in % ([2]; 1 mg capsule, microcrystals X50 6.6/X100 43 μm, 30 min, paddle 100 rpm): 96.7%
RELEASE in % ([2]; 1 mg capsule, microcrystals X50 6.6/X100 43 μm, 45 min, paddle 100 rpm): 96.8%
RELEASE in % ([2]; 1 mg capsule, microcrystals X50 8.7/X100 43 μm, 0 min, paddle 100 rpm): 0%
RELEASE in % ([2]; 1 mg capsule, microcrystals X50 8.7/X100 43 μm, 10 min, paddle 100 rpm): 93.5%
RELEASE in % ([2]; 1 mg capsule, microcrystals X50 8.7/X100 43 μm, 20 min, paddle 100 rpm): 96.7%
RELEASE in % ([2]; 1 mg capsule, microcrystals X50 8.7/X100 43 μm, 30 min, paddle 100 rpm): 98.5%
RELEASE in % ([2]; 1 mg capsule, microcrystals X50 8.7/X100 43 μm, 45 min, paddle 100 rpm): 99.7%
RELEASE in % ([2]; 1 mg capsule, microcrystals X50 14.1/X100 87 μm, 0 min, paddle 100 rpm): 0%
RELEASE in % ([2]; 1 mg capsule, microcrystals X50 14.1/X100 87 μm, 10 min, paddle 100 rpm): 90.2%
RELEASE in % ([2]; 1 mg capsule, microcrystals X50 14.1/X100 87 μm, 20 min, paddle 100 rpm): 95.3%
RELEASE in % ([2]; 1 mg capsule, microcrystals X50 14.1/X100 87 μm, 30 min, paddle 100 rpm): 96.0%
RELEASE in % ([2]; 1 mg capsule, microcrystals X50 14.1/X100 87 μm, 45 min, paddle 100 rpm): 96.3%
RELEASE in % ([2]; 1 mg tablet, microcrystals X50 10.6/X100 73 μm, 0 min, paddle, 100 rpm): 0%
RELEASE in % ([2]; 1 mg tablet, microcrystals X50 10.6/X100 73 μm, 10 min, paddle, 100 rpm): 73.7%
RELEASE in % ([2]; 1 mg tablet, microcrystals X50 10.6/X100 73 μm, 20 min, paddle, 100 rpm): 90.3%
RELEASE in % ([2]; 1 mg tablet, microcrystals X50 10.6/X100 73 μm, 30 min, paddle, 100 rpm): 91.85%
RELEASE in % ([2]; 1 mg tablet, microcrystals X50 10.6/X100 73 μm, 45 min, paddle, 100 rpm): 96.6%

C[C@]1(O)CC[C@H]2[C@@H]3CCC4=CC(=O)CC[C@@H]4[C@H]3CC[C@@]21C [methylnortestosterone, reference compound]
Particle size X10 [3, 17]: 1.32 μm
Particle size X50 [3, 17]: 3.96 μm
Particle size X99 [3, 17]: 14 μm
Particle size X100 [3, 17]: 18 μm
Particle size X10 ([3]; Example 7, spray-dried): 1.36 μm
Particle size X50 ([3]; Example 7, spray-dried): 3.94 μm
Particle size X99 ([3]; Example 7, spray-dried): 14 μm
Particle size X100 ([3]; Example 7, spray-dried): 18 μm

C#C[C@]1(OC(C)=O)CC[C@H]2[C@@H]3CCC4=CC(=O)CC[C@@H]4[C@H]3CC[C@@]21C [norethisterone acetate, reference compound]
Particle size X10 ([3]; Example 6, end): 8.5 μm
Particle size X50 ([3]; Example 6, end): 30.4 μm
Particle size X99 ([3]; Example 6, end): 87 μm
Particle size X100 ([3]; Example 6, end): 100 μm
Particle size X10 [3, 18]: 4 μm
Particle size X50 [3, 18]: 14 μm
Particle size X99 [3, 18]: 55 μm
Particle size X100 [3, 18]: 87 μm

CCCCCCCCCCC(=O)O[C@H]1CC[C@H]2[C@@H]3CCC4=CC(=O)CC[C@]4(C)[C@H]3CC[C@]12C [testosterone undecanoate, reference compound]
Particle size X10 ([3]; Example 4, 1st cycle): 17 μm
Particle size X50 ([3]; Example 4, 1st cycle): 41 μm
Particle size X99 ([3]; Example 4, 1st cycle): 100 μm
Particle size X100 ([3]; Example 4, 1st cycle): 120 μm
Particle size X10 [3, 19]: 6 μm
Particle size X50 [3, 19]: 21 μm
Particle size X99 [3, 19]: 100 μm
Particle size X100 [3, 19]: 120 μm
